Reference: patent publication US4647687A, “Halogenated sulphides, process for their preparation and their use in microbicidal agents” (Bayer Aktiengesellschaft, priority 1983, dated 1987)
≈ marks a conversion by molar mass, not a printed value. Like-named read-outs stand apart in the source and are kept apart here.

Legend:
slime organisms = assay: Action against slime organisms (MIC in Allen's nutrient solution); format: cell-based; details: 336 h, about 10^6 germs/ml, 3 weeks at room temperature
Sclerophoma pityophila = assay: MIC against fungi, beerwort/peptone agar; details: 28° C., 60 to 70% relative humidity, 2 weeks
Chaetomium globosum = assay: MIC against fungi, beerwort/peptone agar; details: 28° C., 60 to 70% relative humidity, 2 weeks
Aspergillus niger = assay: MIC against fungi, beerwort/peptone agar; details: 28° C., 60 to 70% relative humidity, 2 weeks
Staphylococcus aureus = assay: Action against bacteria (MIC in broth agar); format: cell-based; details: 28° C., 60 to 70% relative humidity, 2 weeks
Eschercihia coli = assay: Action against bacteria (MIC in broth agar); format: cell-based; details: Escherichia coli, 28° C., 60 to 70% relative humidity, 2 weeks
Alternaria tenuis = assay: MIC against fungi, beerwort/peptone agar; details: 28° C., 60 to 70% relative humidity, 2 weeks
[1] = test system: microbes (bacteria, yeasts and moulds) isolated from microbially decayed cooling lubricant use dilutions; assay: Testing as a preservative for cooling lubricants; details: 1% active compound in mineral oil cooling lubricant; 5% strength use dilutions contaminated daily for 3 months
Procedure: 1% of the active compound is added, as a preservative, to a cooling lubricant based on mineral oil. 5% strength use dilutions of the cooling lubricant are massively contaminated daily for 3 months with microbes (bacteria, yeasts and moulds) isolated from microbially decayed cooling lubricant use dilutions.

Aureobasidium pullulans = assay: MIC against fungi, beerwort/peptone agar
Lentinus tigrinus = assay: MIC against fungi, beerwort/peptone agar; details: 28° C., 60 to 70% relative humidity, 2 weeks
Polyporus versicolor = assay: MIC against fungi, beerwort/peptone agar
Penicillium glaucum = assay: MIC against fungi, beerwort/peptone agar; details: 28° C., 60 to 70% relative humidity, 2 weeks
Coniophora puteana = assay: MIC against fungi, beerwort/peptone agar; details: 28° C., 60 to 70% relative humidity, 2 weeks
Trichoderma viride = assay: MIC against fungi, beerwort/peptone agar
[2] = 28° C., 60 to 70% relative humidity, 2 weeks

SMILES	MIC (slime organisms)	MIC (Sclerophoma pityophila; Sydowia polyspora, 336 h)	MIC (Chaetomium globosum; 336 h)	MIC (Aspergillus niger; 336 h)	MIC (Staphylococcus aureus; 336 h, read-out: MIC)	MIC (Eschercihia coli; 336 h, read-out: MIC)	MIC (Aureobasidium pullulans; 336 h)	MIC (Lentinus tigrinus; 336 h)	MIC (Polyporus versicolor; Trametes versicolor, 336 h)	MIC (Penicillium glaucum; Penicillium, 336 h)	MIC (Trichoderma viride; 336 h)	MIC (Alternaria tenuis)	MIC (Penicillium glaucum)	MIC (Coniophora puteana)	also measured
N#CC=C(Cl)SCCC#N [Example 1, 1-chloro-2-cyanovinyl 2-cyano-ethyl sulphide]	0.15 µg/mL (≈ 0.869 µM)	–	–	–	–	–	–	–	–	–	–	–	–	–	–
N#CCCSC(Cl)=C(Cl)C#N [Example 2, 1,2-dichloro-2-cyano-vinyl 2-cyano-ethyl sulphide]	2 µg/mL (≈ 9.66 µM)	20 µg/mL (≈ 96.6 µM)	< 20 µg/mL	< 20 µg/mL	35 µg/mL (≈ 169 µM)	200 µg/mL (≈ 966 µM)	–	–	–	–	–	–	–	–	–
N#CC(Cl)=CSC(Cl)=C(Cl)C#N [Example 5, 1,2-dichloro-2-cyano-vinyl 2-chloro-2-cyano-vinyl sulphide]	0.35 µg/mL (≈ 1.46 µM)	0.5 µg/mL (≈ 2.09 µM)	2 µg/mL (≈ 8.35 µM)	2 µg/mL (≈ 8.35 µM)	10 µg/mL (≈ 41.8 µM)	20 µg/mL (≈ 83.5 µM)	5 µg/mL (≈ 20.9 µM)	0.5 µg/mL (≈ 2.09 µM)	1 µg/mL (≈ 4.18 µM)	1 µg/mL (≈ 4.18 µM)	10 µg/mL (≈ 41.8 µM)	–	–	–	MIC (Alternaria tenuis; Alternaria alternata, 336 h): 20 µg/mL (≈ 83.5 µM); state of the use dilutions at the end of the testing period [1]: free from germs; MIC (Coniophora puteana; 336 h): < 0.1 µg/mL
N#CC(Cl)=C(Cl)SC(Cl)=C(Cl)C#N [Example 8, bis-(1,2-dichloro-2-cyano-vinyl) sulphide]	–	0.5 µg/mL (≈ 1.83 µM)	2 µg/mL (≈ 7.3 µM)	2 µg/mL (≈ 7.3 µM)	< 20 µg/mL	50 µg/mL (≈ 183 µM)	1 µg/mL (≈ 3.65 µM)	0.5 µg/mL (≈ 1.83 µM)	1 µg/mL (≈ 3.65 µM)	–	10 µg/mL (≈ 36.5 µM)	2 µg/mL (≈ 7.3 µM)	1 µg/mL (≈ 3.65 µM)	< 0.1 µg/mL	–
N#CC(Cl)=C(Cl)SC(Cl)=C(Cl)C#N [Example 9, bis-(1,2-dichloro-2-cyano-vinyl) sulphide]	–	–	–	–	–	–	–	–	–	–	–	0.75 µg/mL (≈ 2.74 µM)	2.5 µg/mL (≈ 9.13 µM)	0.5 µg/mL (≈ 1.83 µM)	MIC (Sclerophoma pityophila): 0.75 µg/mL (≈ 2.74 µM); MIC (Chaetomium globosum): 2.5 µg/mL (≈ 9.13 µM); MIC (Aspergillus niger): 2.5 µg/mL (≈ 9.13 µM); MIC (Staphylococcus aureus): 10 µg/mL (≈ 36.5 µM); MIC (Aureobasidium pullulans; [2]): 1 µg/mL (≈ 3.65 µM); MIC (Eschercihia coli): 25 µg/mL (≈ 91.3 µM); MIC (Lentinus tigrinus): 1 µg/mL (≈ 3.65 µM); MIC (Polyporus versicolor; Polyporus versicolor, 28° C., 60 to 70% relative humidity, 2 weeks): 1 µg/mL (≈ 3.65 µM); MIC (Trichoderma viride; [2]): 10 µg/mL (≈ 36.5 µM)
N#CC(Cl)=CS(=O)(=O)c1ccccc1 [α-Chloro-β-phenylsulphonyl-acrylonitrile, α-Chloro-β-phenylsulphonyl acrylonitrile, reference compound]	–	–	50 µg/mL (≈ 220 µM)	50 µg/mL (≈ 220 µM)	500 µg/mL (≈ 2200 µM)	200 µg/mL (≈ 878 µM)	–	–	–	35 µg/mL (≈ 154 µM)	–	–	–	–	–
